Consider 14 compounds from PMC10562900 (RSC Advances, 2023).

As a reminder, the IC50 is the concentration that inhibits the measured activity by half. A word on the inhibition: it is the change of the read-out against control, counted positive when it falls.

One assay has as its system MCF-7. The settings on record: read-out: IC50 (cell viability); cited from earlier work.
The next assay has as its target T1, h-e5′NT (Homo sapiens, UniProt P21589).
T1 sequence (P21589 27-574): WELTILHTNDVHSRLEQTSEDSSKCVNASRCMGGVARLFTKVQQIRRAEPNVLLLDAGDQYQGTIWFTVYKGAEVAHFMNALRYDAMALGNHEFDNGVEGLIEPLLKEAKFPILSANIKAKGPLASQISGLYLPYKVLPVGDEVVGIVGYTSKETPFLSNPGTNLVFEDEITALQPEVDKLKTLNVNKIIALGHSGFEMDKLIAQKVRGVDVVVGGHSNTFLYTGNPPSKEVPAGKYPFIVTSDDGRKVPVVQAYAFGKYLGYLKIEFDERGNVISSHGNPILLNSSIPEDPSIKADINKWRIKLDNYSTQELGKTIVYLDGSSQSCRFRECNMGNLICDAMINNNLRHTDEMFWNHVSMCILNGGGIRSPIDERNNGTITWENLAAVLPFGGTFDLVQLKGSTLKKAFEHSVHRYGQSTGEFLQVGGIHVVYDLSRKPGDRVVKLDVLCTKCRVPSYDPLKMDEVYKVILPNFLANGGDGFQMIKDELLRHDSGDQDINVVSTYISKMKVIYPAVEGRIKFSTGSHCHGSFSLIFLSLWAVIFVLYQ
Kind of assay: CD73. Type of assay: biochemical. To be noted: for inhibition at 100 µM: read-out: inhibition% h-e5′NT.

The next assay deals with T2, h-TNAP (Homo sapiens, UniProt P05186).
T2 sequence (P05186 18-524): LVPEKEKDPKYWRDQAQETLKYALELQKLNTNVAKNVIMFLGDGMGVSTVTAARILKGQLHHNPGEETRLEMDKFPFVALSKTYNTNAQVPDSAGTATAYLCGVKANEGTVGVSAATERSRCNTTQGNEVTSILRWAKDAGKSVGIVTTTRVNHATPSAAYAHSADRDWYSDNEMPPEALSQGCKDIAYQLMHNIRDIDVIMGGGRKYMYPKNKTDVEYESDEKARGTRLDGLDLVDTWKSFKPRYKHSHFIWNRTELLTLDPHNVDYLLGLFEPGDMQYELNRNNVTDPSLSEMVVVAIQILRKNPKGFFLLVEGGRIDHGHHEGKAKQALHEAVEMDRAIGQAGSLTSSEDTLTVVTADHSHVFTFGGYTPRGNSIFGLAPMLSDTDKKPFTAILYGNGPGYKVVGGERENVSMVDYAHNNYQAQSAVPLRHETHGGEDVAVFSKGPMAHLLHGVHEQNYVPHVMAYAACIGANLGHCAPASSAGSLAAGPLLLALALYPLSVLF
Kind of assay: h-TNAP inhibition assay. The settings on record: for inhibition at 100 µM: read-out: inhibition% h-TNAP. Type of assay: biochemical.

Another assay deals with T3, r-e5′NT (Rattus norvegicus, UniProt P21588).
T3 sequence (P21588 29-576): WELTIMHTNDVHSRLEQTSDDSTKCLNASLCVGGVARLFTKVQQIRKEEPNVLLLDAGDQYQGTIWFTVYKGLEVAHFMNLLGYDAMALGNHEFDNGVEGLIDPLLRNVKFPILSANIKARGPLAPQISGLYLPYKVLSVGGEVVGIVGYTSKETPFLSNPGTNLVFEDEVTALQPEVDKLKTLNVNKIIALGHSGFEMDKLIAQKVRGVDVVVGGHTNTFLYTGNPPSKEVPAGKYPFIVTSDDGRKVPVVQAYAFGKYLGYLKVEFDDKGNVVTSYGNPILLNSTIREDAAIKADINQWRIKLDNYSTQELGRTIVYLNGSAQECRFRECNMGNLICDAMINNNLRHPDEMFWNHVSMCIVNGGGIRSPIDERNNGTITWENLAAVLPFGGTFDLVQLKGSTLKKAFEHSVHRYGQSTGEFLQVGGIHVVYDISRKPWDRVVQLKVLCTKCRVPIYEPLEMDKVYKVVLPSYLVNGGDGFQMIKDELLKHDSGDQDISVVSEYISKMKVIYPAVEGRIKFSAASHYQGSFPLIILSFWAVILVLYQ
Kind of assay: CD73. Type of assay: biochemical. To be noted: for inhibition at 100 µM: read-out: inhibition% r-e5′NT.

Another assay has as its target T4, h-ENPP3 (Homo sapiens, UniProt O14638).
T4 sequence (O14638 1-875): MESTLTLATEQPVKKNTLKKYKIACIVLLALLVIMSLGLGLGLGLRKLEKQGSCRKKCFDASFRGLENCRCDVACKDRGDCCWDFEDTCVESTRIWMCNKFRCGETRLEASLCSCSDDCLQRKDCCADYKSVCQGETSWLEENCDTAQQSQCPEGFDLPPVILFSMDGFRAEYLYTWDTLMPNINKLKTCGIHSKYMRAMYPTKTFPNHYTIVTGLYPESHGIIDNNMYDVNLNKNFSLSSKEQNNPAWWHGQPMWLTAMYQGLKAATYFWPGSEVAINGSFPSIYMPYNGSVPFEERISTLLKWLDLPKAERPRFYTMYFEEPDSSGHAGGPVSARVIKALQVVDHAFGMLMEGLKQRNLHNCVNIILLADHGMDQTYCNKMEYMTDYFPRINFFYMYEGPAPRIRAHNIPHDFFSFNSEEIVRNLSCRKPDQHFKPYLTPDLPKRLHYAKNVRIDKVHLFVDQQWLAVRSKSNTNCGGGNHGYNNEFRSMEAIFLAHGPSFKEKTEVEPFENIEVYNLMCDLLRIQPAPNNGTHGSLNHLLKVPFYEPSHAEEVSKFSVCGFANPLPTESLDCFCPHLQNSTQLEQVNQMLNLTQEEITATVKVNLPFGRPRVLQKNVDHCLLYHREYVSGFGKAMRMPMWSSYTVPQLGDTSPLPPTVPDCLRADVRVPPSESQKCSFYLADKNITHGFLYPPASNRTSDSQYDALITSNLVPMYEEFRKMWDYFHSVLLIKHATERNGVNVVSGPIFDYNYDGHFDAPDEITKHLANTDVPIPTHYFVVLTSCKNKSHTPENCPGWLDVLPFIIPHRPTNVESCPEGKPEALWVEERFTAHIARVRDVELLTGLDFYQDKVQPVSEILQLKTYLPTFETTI
Description: h-ENPP3 inhibition assay. Type of assay: biochemical. To be noted: for selectivity for h-ENPP3 between the two h-ENPP isozymes: h-ENPP3 versus h-ENPP1.

The target in another assay is T5, h-ENPP1 (Homo sapiens, UniProt P22413).
T5 sequence (P22413 1-925): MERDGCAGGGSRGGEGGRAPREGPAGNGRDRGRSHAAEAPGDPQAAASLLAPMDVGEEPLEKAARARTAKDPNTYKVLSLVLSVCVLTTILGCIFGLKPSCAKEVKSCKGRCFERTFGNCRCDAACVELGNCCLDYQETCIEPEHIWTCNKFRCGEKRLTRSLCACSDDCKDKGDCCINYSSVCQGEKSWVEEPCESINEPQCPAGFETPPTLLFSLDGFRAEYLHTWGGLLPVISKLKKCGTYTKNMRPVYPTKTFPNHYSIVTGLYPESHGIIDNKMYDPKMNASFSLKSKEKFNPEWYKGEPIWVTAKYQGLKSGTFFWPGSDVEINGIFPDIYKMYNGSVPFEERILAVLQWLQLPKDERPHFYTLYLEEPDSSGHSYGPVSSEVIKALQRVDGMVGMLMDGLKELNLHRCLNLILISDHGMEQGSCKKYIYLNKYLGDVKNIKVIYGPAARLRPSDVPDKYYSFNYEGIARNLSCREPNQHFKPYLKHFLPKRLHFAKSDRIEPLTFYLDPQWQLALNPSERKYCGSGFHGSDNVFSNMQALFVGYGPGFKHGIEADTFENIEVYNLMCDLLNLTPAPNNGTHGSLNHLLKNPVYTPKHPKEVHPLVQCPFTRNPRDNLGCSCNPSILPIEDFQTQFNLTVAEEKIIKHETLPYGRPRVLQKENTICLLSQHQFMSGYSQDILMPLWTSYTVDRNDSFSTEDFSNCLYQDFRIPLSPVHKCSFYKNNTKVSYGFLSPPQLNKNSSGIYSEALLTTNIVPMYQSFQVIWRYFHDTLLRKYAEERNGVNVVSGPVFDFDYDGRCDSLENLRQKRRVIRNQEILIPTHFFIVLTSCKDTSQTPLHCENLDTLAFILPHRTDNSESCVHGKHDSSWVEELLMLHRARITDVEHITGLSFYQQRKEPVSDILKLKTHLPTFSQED
Kind of assay: h-ENPP1 inhibition assay. The settings on record: read-out: inhibition% h-ENPP1. Type of assay: biochemical.

With `COc1cccc(OS(=O)(=O)c2ccc(C)cc2)c1` [3-methoxyphenyl p-toluenesulfonate], in the assay with MCF-7, the IC50 was 89800 nM.
Take `O=C(Cc1c[nH]c2ccccc12)Nc1ccccc1OS(=O)(=O)c1ccccc1Cl` [5a, 2-(2-(1H-indol-3-yl)acetamido)phenyl 2-chlorobenzenesulfonate]: the IC50 was 1190 ± 20 nM on h-e5′NT and 1600 ± 110 nM against h-TNAP. Also, the inhibition at 100 µM at r-e5′NT was found to be 22.7%.
On h-e5′NT, `O=C(Cc1c[nH]c2ccccc12)Nc1ccccc1OS(=O)(=O)Cc1ccccc1` [5b, 2-(2-(1H-indol-3-yl)acetamido)phenyl phenylmethanesulfonate] displayed a half-inhibitory concentration (IC50) of 13200 ± 3140 nM. Further, the inhibition at 100 µM on h-TNAP is 42.4%; at r-e5′NT it was 38.5%.
With `COc1ccc(S(=O)(=O)Oc2ccccc2NC(=O)Cc2c[nH]c3ccccc23)cc1` [5d, 2-(2-(1H-indol-3-yl)acetamido)phenyl 4-methoxy-benzenesulfonate], the IC50 on h-e5′NT turned out to be 3460 ± 120 nM; against h-TNAP, 5180 ± 460 nM; on r-e5′NT it was 1770 ± 120 nM.
As to `O=C(Cc1c[nH]c2ccccc12)Nc1ccccc1OS(=O)(=O)c1ccc(-c2ccccc2)cc1` [5e, 2-(2-(1H-indol-3-yl)acetamido)phenyl [1,1′-biphenyl]-4-sulfonate], the IC50 on h-e5′NT is 560 ± 16 nM; on h-TNAP, 1060 ± 30 nM; on r-e5′NT it was 980 ± 20 nM.
Turning to `O=C(Cc1c[nH]c2ccccc12)Nc1ccccc1OS(=O)(=O)c1ccc(Br)cc1` [5f, 2-(2-(1H-indol-3-yl)acetamido)phenyl 4-bromobenzenesulfonate], the IC50 amounted to 690 ± 1 nM against h-e5′NT, 6580 ± 250 nM against h-TNAP and 1640 ± 20 nM against r-e5′NT.
As for `Cc1ccc(S(=O)(=O)Oc2ccccc2NC(=O)Cc2c[nH]c3ccccc23)cc1Cl` [5g, 2-(2-(1H-indol-3-yl)acetamido)phenyl 3-chloro-4-methylbenzenesulfonate], the IC50 worked out at 4410 ± 190 nM against h-e5′NT, 590 ± 80 nM on h-TNAP and 1850 ± 110 nM against r-e5′NT.
For the compound `O=C(Cc1c[nH]c2ccccc12)Nc1ccccc1OS(=O)(=O)C(F)(F)F` [5j, 2-(2-(1H-indol-3-yl)acetamido)phenyl trifluoromethanesulfonate], the IC50 on h-e5′NT was 890 ± 40 nM; on h-TNAP, 1680 ± 70 nM; against r-e5′NT, 5120 ± 610 nM.
As for `CC(C)S(=O)(=O)Oc1ccccc1NC(=O)Cc1c[nH]c2ccccc12` [5k, 2-(2-(1H-indol-3-yl)acetamido)phenyl propane-2-sulfonate], the inhibition at 100 µM turned out to be 37.5% at h-e5′NT, 31.8% on h-TNAP and 28.6% on r-e5′NT.
As for `O=C(Cc1c[nH]c2ccccc12)Nc1ccccc1OS(=O)(=O)c1ccc(Cl)cc1` [5l, 2-(2-(1H-indol-3-yl)acetamido)phenyl 4-chlorobenzenesulfonate], the IC50 stood at 430 ± 30 nM against h-e5′NT, 1690 ± 180 nM on h-TNAP and 5670 ± 110 nM against r-e5′NT.
Turning to `O=C(Cc1c[nH]c2ccccc12)Nc1ccccc1OS(=O)(=O)c1cccc2cccnc12` [5m, 2-(2-(1H-indol-3-yl)acetamido)phenyl quinoline-8-sulfonate], the half-inhibitory concentration (IC50) against h-e5′NT was found to be 6530 ± 670 nM; at h-TNAP, 1300 ± 380 nM. Moreover, at r-e5′NT, the inhibition at 100 µM was 30%.
As to `O=C(Cc1c[nH]c2ccccc12)Nc1ccccc1OS(=O)(=O)c1cccs1` [5n, 2-(2-(1H-indol-3-yl)acetamido)phenyl thiophene-2-sulfonate], the inhibition at 100 µM was found to be 44.7% at h-e5′NT, 28.9% at h-TNAP, 46.6% on r-e5′NT and 38% on h-ENPP1. On h-ENPP3, this compound returned an IC50 of 2550 ± 70 nM. For the same compound, the “selectivity for h-ENPP3 between the two h-ENPP isozymes” value on h-ENPP3 is “more effective and selective for h-ENPP3”.
As to `Cc1ccc(S(=O)(=O)Oc2ccccc2NC(=O)Cc2c[nH]c3ccccc23)cc1` [5o, 2-(2-(1H-indol-3-yl)acetamido)phenyl 4-methylbenzenesulfonate], the IC50 came out at 3210 ± 830 nM against h-e5′NT, 3370 ± 50 nM against h-TNAP, 2670 ± 460 nM against h-ENPP3 and 4860 ± 40 nM against r-e5′NT. For the same compound, at h-ENPP3, the “selectivity for h-ENPP3 between the two h-ENPP isozymes” value was “more effective and selective for h-ENPP3”. Besides, the inhibition at 100 µM at h-ENPP1 was determined as 28.3%.
With `COc1ccc(OS(=O)(=O)c2ccc(C)cc2)cc1` [p-methoxyphenyl p-toluenesulfonate], the IC50 in the assay with MCF-7 was 126000 nM.
